Measurements published in patent US6384304B1, “Conditional sterility in wheat” (Plant Genetic Systems N.V., priority 1999, dated 2002).

Test system: Triticum aestivum plants
Details: 0.1% active ingredient, microdroplets on leaf blades, stage 32, outdoor; radioactivity measurements and autoradiography at different time points
Method: Plant treatment: The application solution of the formulated test compound was applied in the form of microdroplets by syringe to the blades (adaxial surface) of the fuilly developed leaves. A volume of 20 μl each was applied to the 3rd or 4th leaf of the main shoot and of two tillers per plant (=a total of 60 μl application solution per plant.). Plants were kept under outdoor conditions and uptake and translocation of the test substance was analyzed at different stages.
Sampling of Leaf Tissue was Carried Out at the Following Time Points:
1) 1 week after treatment
2) 3 weeks after treatment
Processing of Collected Samples for quantitative Determinations:
For the sampling done at time points 1, 2 and 3, the treated leaf blades were cut off and the non-absorbed test compound was washed from the treated leaf blades by 2 consecutive short washes with water. Subsequently plants were dissected further, resulting in the following parts: […]
Radioactivity was quantified in the different plant parts and in the washing solutions and was calculated as equivalents of the labeled compounds. […]
For the sampling time point 4, radioactivity is determined in the grains only and is calculated as equivalents of the labeled test compound. […]
In addition to the quantitative radioactivity measurements the distribution of radioactivity is determined by autoradiography in plants of the sampling time points 1 and 2.

Compound: CC(=O)N[C@@H](CCP(C)(=O)[O-])C(=O)[O-].[Na+].[Na+] [N-acetyl PPT, dinatrium L-2-acetamido-4-methylphosphinato-butyrate-[3^14C, 4^14C]]
- foliar uptake in wheat tissue: good
- translocation of the test substance in the plant: translocation through the phloem to the ears both in the main shoot and the tillers
